Experimental findings from PubChem BioAssay (NCI) are described below.

Structures are written as SMILES.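 Grown in 96-well plates, cells were treated for 48 hours with each compound at five concentrations. Insufficient inhibition: endpoint recorded as highest concentration tested. GI50 = concentration required for 50% inhibition of growth. TGI marks complete inhibition of growth.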

Among the test systems are IGROV1 ovarian; SK-MEL-5 melanoma; SW-620 colon; MOLT-4 leukemia; HOP-92 NSCLC; OVCAR-5 ovarian; SF-295 CNS; LOX IMVI melanoma; UACC-257 melanoma; CAKI-1 renal.
What all share (experiment): NCI anticancer screen, dose series, 48 h

Regarding `O=C(O/N=C1/CCCC/C1=C\c1ccccc1)c1ccccc1`, the TGI in the assay on IGROV1 ovarian was 0.78 µM; in the assay with SK-MEL-5 melanoma it was 0.34 µM; with SW-620 colon, above 100 µM; in the assay with MOLT-4 leukemia it was 49 µM; in the assay on HOP-92 NSCLC, above 100 µM; in the assay on OVCAR-5 ovarian, above 100 µM. The TGI in the assay with SF-295 CNS was above 100 µM; with LOX IMVI melanoma it was 88.8 µM; in the assay on UACC-257 melanoma, above 100 µM.

Regarding `O=C1OC(c2ccccc2)=N/C1=C/C=C/c1ccco1`, the TGI with CAKI-1 renal, in the assay on IGROV1 ovarian, in the assay with SK-MEL-5 melanoma, in the assay on SW-620 colon, with MOLT-4 leukemia and in the assay on HOP-92 NSCLC was above 100 µM in each case. In addition, the TGI with OVCAR-5 ovarian and in the assay with SF-295 CNS was above 100 µM in each case.

Consider `CCOC(=O)Oc1c(OC)cc(C(=O)NC2CCc3cc(OC)c(OC)c(OC)c3-c3ccc(SC)c(=O)cc32)cc1OC` (stereo not given), for which the GI50 in the assay on IGROV1 ovarian was below 0.007 µM; with SW-620 colon, below 0.007 µM; with MOLT-4 leukemia, below 0.007 µM; in the assay on OVCAR-5 ovarian, above 70 µM; with SF-295 CNS, 0.0242 µM; in the assay with UACC-257 melanoma it was below 0.007 µM. Also, the TGI with IGROV1 ovarian was above 70 µM; in the assay with SK-MEL-5 melanoma, 0.916 µM; with SW-620 colon, above 70 µM; with MOLT-4 leukemia, above 70 µM; in the assay with HOP-92 NSCLC, 0.871 µM; in the assay with OVCAR-5 ovarian it was above 70 µM. Further, in the assay on UACC-257 melanoma, the TGI is above 70 µM.

As to `CC/C(=C(/c1ccc(OCCN(C)C)cc1)c1ccc(OC(=O)CCCCC(=O)c2c(C)[nH]c(/C=C3\N=C(c4ccc[nH]4)C=C3OC)c2C)cc1)c1ccccc1`, the GI50 in the assay with CAKI-1 renal was 6.27 µM; in the assay on IGROV1 ovarian, 13.3 µM; with SK-MEL-5 melanoma it was 1.61 µM; in the assay on SW-620 colon, 3.16 µM; in the assay on MOLT-4 leukemia it was 1.73 µM; in the assay on HOP-92 NSCLC it was 1.12 µM. Also, the GI50 with OVCAR-5 ovarian is 10.6 µM; with LOX IMVI melanoma it was 2.05 µM; in the assay with UACC-257 melanoma, 12 µM. For the same compound, the TGI was determined as 36.1 µM in the assay with CAKI-1 renal; 46 µM in the assay with IGROV1 ovarian; 3.11 µM in the assay on SK-MEL-5 melanoma; 11.4 µM with SW-620 colon; 24.8 µM in the assay with MOLT-4 leukemia; 6.28 µM with HOP-92 NSCLC. Also, the values for the TGI in the assay with OVCAR-5 ovarian, with LOX IMVI melanoma and in the assay on UACC-257 melanoma were 22.5 µM, 5.14 µM and 28.9 µM, respectively.

Consider `CC(C)=C[C@@H]1C[C@H](C)[C@H]2CC[C@H](C)C3=C2[C@](O)(OC3=O)[C@]1(C)O`, for which the GI50 in the assay on CAKI-1 renal, with IGROV1 ovarian, in the assay on SK-MEL-5 melanoma, with SW-620 colon, in the assay on MOLT-4 leukemia and in the assay on OVCAR-5 ovarian was above 100 µM throughout. Besides, the GI50 in the assay with SF-295 CNS, in the assay on LOX IMVI melanoma and in the assay on UACC-257 melanoma was above 100 µM throughout. For the same compound, the TGI in the assay with CAKI-1 renal, in the assay on IGROV1 ovarian, in the assay with SK-MEL-5 melanoma, with SW-620 colon, in the assay with MOLT-4 leukemia and with OVCAR-5 ovarian was above 100 µM each time. For the same compound, the TGI in the assay with SF-295 CNS, in the assay on LOX IMVI melanoma and with UACC-257 melanoma was above 100 µM in each case.

On to `Cc1ccccc1N1C(=O)/C(=C/c2ccc(N(CCC#N)CCC#N)cc2)N=C1c1cc([N+](=O)[O-])ccc1Cl`, for which the TGI in the assay on CAKI-1 renal, in the assay with IGROV1 ovarian, in the assay with SK-MEL-5 melanoma, with SW-620 colon, in the assay on MOLT-4 leukemia and in the assay on OVCAR-5 ovarian was above 100 µM throughout. For the same compound, the TGI with SF-295 CNS and in the assay on UACC-257 melanoma was above 100 µM throughout.

With `CCOC(=O)/C=C/C(C(=O)/C=C/c1ccc(OC2CCCCO2)c(OC)c1)=C(O)\C=C\c1ccc(OC2CCCCO2)c(OC)c1` (stereo not given), the GI50 with CAKI-1 renal is 4.97 µM; in the assay with IGROV1 ovarian, 2.85 µM; in the assay with SK-MEL-5 melanoma it was 4.44 µM; with SW-620 colon it was 3.65 µM; in the assay with HOP-92 NSCLC, 20.2 µM; in the assay on OVCAR-5 ovarian, 7.81 µM. Also, the GI50 in the assay on SF-295 CNS is 10.7 µM; in the assay on LOX IMVI melanoma it was 1.63 µM; in the assay on UACC-257 melanoma, 19.8 µM. Besides, the TGI was above 100 µM in the assay with CAKI-1 renal; 6.68 µM with IGROV1 ovarian; 16.5 µM with SK-MEL-5 melanoma; above 100 µM with SW-620 colon; 58.2 µM in the assay with HOP-92 NSCLC; 74.5 µM in the assay on OVCAR-5 ovarian. Moreover, the TGI turned out to be 42.8 µM with SF-295 CNS, 3.32 µM in the assay with LOX IMVI melanoma and 78.4 µM in the assay on UACC-257 melanoma.

For `Ic1ccc(Nc2nc3nonc3nc2Nc2ccc(I)cc2)cc1`, the GI50 with CAKI-1 renal is 0.214 µM; in the assay on IGROV1 ovarian, 0.46 µM; in the assay on SK-MEL-5 melanoma, 0.137 µM; in the assay with SW-620 colon it was 0.296 µM; in the assay on MOLT-4 leukemia it was 0.256 µM; in the assay with HOP-92 NSCLC, 0.0408 µM. The GI50 in the assay on OVCAR-5 ovarian was 0.387 µM; in the assay on SF-295 CNS it was 0.215 µM; in the assay on UACC-257 melanoma it was 0.2 µM. Moreover, the TGI with IGROV1 ovarian was above 100 µM; in the assay on SK-MEL-5 melanoma it was 0.352 µM; in the assay with SW-620 colon, above 100 µM; in the assay with MOLT-4 leukemia it was 1.06 µM; with HOP-92 NSCLC it was 0.458 µM; with OVCAR-5 ovarian, above 100 µM. For the same compound, the TGI with SF-295 CNS was 0.893 µM; with UACC-257 melanoma, 0.772 µM.

Consider `CC(SC(C)C(=O)N/N=C/c1cccc(Cl)c1)C(=O)N/N=C\c1cccc(Cl)c1` (stereo not given), for which the GI50 was 61.4 µM in the assay on CAKI-1 renal; 18.4 µM with IGROV1 ovarian; 16.3 µM in the assay on SK-MEL-5 melanoma; 2.6 µM in the assay with SW-620 colon; 11.2 µM with MOLT-4 leukemia; 17.4 µM in the assay with OVCAR-5 ovarian. In addition, the GI50 in the assay on SF-295 CNS is 14.1 µM; in the assay on LOX IMVI melanoma it was 3.03 µM; with UACC-257 melanoma it was 32.3 µM. For the same compound, the TGI with CAKI-1 renal was above 100 µM; in the assay on IGROV1 ovarian, 69.3 µM; with SK-MEL-5 melanoma it was 31.4 µM; in the assay on SW-620 colon, 6.65 µM; in the assay with MOLT-4 leukemia, 42 µM; in the assay with OVCAR-5 ovarian it was 44.2 µM. Moreover, the TGI with SF-295 CNS is 35 µM; in the assay with LOX IMVI melanoma, 10.5 µM; in the assay with UACC-257 melanoma, above 100 µM.

Consider `CCn1c(-c2cc(OC)cc(OC)c2)nc2c1C(=O)c1ccccc1C2=O`, for which the TGI in the assay with IGROV1 ovarian, in the assay on SK-MEL-5 melanoma, in the assay with SW-620 colon, in the assay on MOLT-4 leukemia, in the assay with HOP-92 NSCLC and in the assay with OVCAR-5 ovarian was above 100 µM each time. Besides, the TGI in the assay with SF-295 CNS and with UACC-257 melanoma was above 100 µM each time.
